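A five-concentration, 48-hour dose response in 96-well plates underlies each endpoint, interpolated linearly between surrounding concentrations. At the GI50, growth is halved. At the TGI there is no net growth.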
Tests used:
Assay in all cases: NCI anticancer screen, dose series, 48 h
[1] = tested on: 786-0 renal
[2] = tested on: A498 renal
[3] = tested on: A549 NSCLC
[4] = tested on: ACHN renal
[5] = tested on: BT-549 breast
[6] = tested on: CAKI-1 renal
[7] = tested on: CCRF-CEM leukemia
[8] = tested on: COLO 205 colon
[9] = tested on: DU-145 prostate
[10] = tested on: EKVX NSCLC
[11] = tested on: HCC-2998 colon
[12] = tested on: HCT-116 colon
[13] = tested on: HCT-15 colon
[14] = tested on: HL-60(TB) leukemia
[15] = tested on: HOP-62 NSCLC
[16] = tested on: HOP-92 NSCLC
[17] = tested on: HS 578T breast
[18] = tested on: HT29 colon
[19] = tested on: IGROV1 ovarian
[20] = tested on: K-562 leukemia
[21] = tested on: KM12 colon
[22] = tested on: LOX IMVI melanoma
[23] = tested on: M14 melanoma
[24] = tested on: MALME-3M melanoma
[25] = tested on: MCF7 breast
[26] = tested on: MDA-MB-231 breast
[27] = tested on: MDA-MB-435
[28] = tested on: MDA-MB-468 breast
[29] = tested on: MOLT-4 leukemia
[30] = tested on: NCI-H226 lung
[31] = tested on: NCI-H23 lung
[32] = tested on: NCI-H460 lung
[33] = tested on: NCI-H522 lung
[34] = tested on: NCI/ADR-RES ovarian
[35] = tested on: OVCAR-3 ovarian
[36] = tested on: OVCAR-4 ovarian
[37] = tested on: OVCAR-5 ovarian
[38] = tested on: OVCAR-8 ovarian
[39] = tested on: PC-3 prostate
[40] = tested on: RPMI-8226 leukemia
[41] = tested on: RXF 393 renal
[42] = tested on: SF-268 CNS
[43] = tested on: SF-295 CNS
[44] = tested on: SF-539 CNS
[45] = tested on: SK-MEL-2 melanoma
[46] = tested on: SK-MEL-28 melanoma
[47] = tested on: SK-MEL-5 melanoma
[48] = tested on: SK-OV-3 ovarian
[49] = tested on: SN12C renal
[50] = tested on: SNB-19 CNS
[51] = tested on: SR leukemia
[52] = tested on: SW-620 colon
[53] = tested on: T-47D breast
[54] = tested on: TK-10 renal
[55] = tested on: U251 CNS
[56] = tested on: UACC-257 melanoma
[57] = tested on: UACC-62 melanoma
[58] = tested on: UO-31 renal
[59] = tested on: SNB-75 CNS

## C[C@H]1CN(C(=O)c2ccc3c(NNC(=O)c4ccncn4)nc4cc(F)c(F)cc4n23)CCN1
[1]
  GI50: 0.879 µM
  TGI: 11.4 µM
[2]
  GI50: 19.1 µM
  TGI: 34.3 µM
[3]
  GI50: 0.773 µM
  TGI: 15.6 µM
[4]
  GI50: 0.452 µM
  TGI: 12.2 µM
[5]
  GI50: 4.06 µM
  TGI: 85.8 µM
[6]
  GI50: 0.566 µM
  TGI: 27.2 µM
[7]
  GI50: 1.25 µM
  TGI: 8.74 µM
[8]
  GI50: 2.32 µM
  TGI: 15 µM
[9]
  GI50: 1.99 µM
  TGI: > 100 µM
[10]
  GI50: 0.871 µM
  TGI: 9.24 µM
[11]
  GI50: 2.14 µM
  TGI: 62.5 µM
[12]
  GI50: 0.568 µM
  TGI: 22.2 µM
[13]
  GI50: 0.18 µM
  TGI: 20.1 µM
[14]
  GI50: 1.3 µM
  TGI: 6.27 µM
[15]
  GI50: 0.938 µM
  TGI: > 100 µM
[16]
  GI50: 0.246 µM
  TGI: 5.56 µM
[17]
  GI50: 7.64 µM
  TGI: > 100 µM
[18]
  GI50: 0.495 µM
  TGI: 16 µM
[19]
  GI50: 3.29 µM
  TGI: > 100 µM
[20]
  GI50: 1.97 µM
  TGI: 32.6 µM
[21]
  GI50: 2.29 µM
  TGI: 54 µM
[22]
  GI50: 0.88 µM
  TGI: 4.44 µM
[23]
  GI50: 0.711 µM
  TGI: 4.5 µM
[24]
  GI50: 2.57 µM
  TGI: 9.98 µM
[25]
  GI50: 2.75 µM
  TGI: 55.8 µM
[26]
  GI50: 3.42 µM
  TGI: 49.9 µM
[27]
  GI50: 4.83 µM
  TGI: > 100 µM
[28]
  GI50: 1.51 µM
  TGI: 4.54 µM
[29]
  GI50: 1.98 µM
  TGI: 17.2 µM
[30]
  GI50: 1.49 µM
  TGI: 13 µM
[31]
  GI50: 2 µM
  TGI: > 100 µM
[32]
  GI50: 0.492 µM
  TGI: 12.7 µM
[33]
  GI50: 2.18 µM
  TGI: 20.3 µM
[34]
  GI50: 1.24 µM
  TGI: 6.73 µM
[35]
  GI50: 3.32 µM
  TGI: 81.1 µM
[36]
  GI50: 2.12 µM
  TGI: 40.1 µM
[37]
  GI50: 2.58 µM
  TGI: 44.4 µM
[38]
  GI50: 1.05 µM
  TGI: 14 µM
[39]
  GI50: 1.6 µM
  TGI: 30.6 µM
[40]
  GI50: 2.71 µM
  TGI: > 100 µM
[41]
  GI50: 2.12 µM
  TGI: 12.2 µM
[42]
  GI50: 2.17 µM
  TGI: > 100 µM
[43]
  GI50: 0.418 µM
  TGI: 19.1 µM
[44]
  GI50: 2.61 µM
  TGI: 14.5 µM
[45]
  GI50: 2.73 µM
  TGI: 20.1 µM
[46]
  GI50: 2.92 µM
  TGI: > 100 µM
[47]
  GI50: 1.55 µM
  TGI: 11.1 µM
[48]
  GI50: 1.2 µM
  TGI: 17.2 µM
[49]
  GI50: 2.87 µM
  TGI: > 100 µM
[50]
  GI50: 3.4 µM
  TGI: > 100 µM
[51]
  GI50: 0.444 µM
  TGI: 11.3 µM
[52]
  GI50: 1.98 µM
  TGI: > 100 µM
[53]
  GI50: 3.43 µM
  TGI: > 100 µM
[54]
  GI50: 0.373 µM
  TGI: 16.8 µM
[55]
  GI50: 0.892 µM
  TGI: > 100 µM
[56]
  GI50: 3.34 µM
  TGI: 20.3 µM
[57]
  GI50: 1.53 µM
  TGI: 4.56 µM
[58]
  GI50: 0.284 µM
  TGI: 5.08 µM

## Nc1cc(-c2c[nH]c3ccc(F)cc23)nc2cc(-c3c[nH]c4ccccc34)nn12
[1]
  GI50: 1.49 µM
  TGI: 2.93 µM
[2]
  GI50: 2.8 µM
  TGI: 11.3 µM
[3]
  GI50: 3.81 µM
  TGI: 20.5 µM
[4]
  GI50: 3.22 µM
  TGI: 10.9 µM
[5]
  GI50: 8.6 µM
  TGI: 20.8 µM
[6]
  GI50: 2.74 µM
  TGI: 12.4 µM
[7]
  GI50: 2.65 µM
  TGI: 8.01 µM
[8]
  GI50: 1.6 µM
  TGI: 3.2 µM
[9]
  GI50: 4.3 µM
  TGI: 15.3 µM
[10]
  GI50: 3.49 µM
  TGI: 14.9 µM
[11]
  GI50: 2.02 µM
  TGI: 4.14 µM
[12]
  GI50: 1.91 µM
  TGI: 4.1 µM
[13]
  GI50: 1.71 µM
  TGI: 3.69 µM
[14]
  GI50: 2.18 µM
  TGI: 9.55 µM
[15]
  GI50: 4.55 µM
  TGI: 21.8 µM
[16]
  GI50: 2.42 µM
  TGI: 7.09 µM
[17]
  GI50: 3.73 µM
  TGI: 20.5 µM
[18]
  GI50: 2.09 µM
  TGI: 4.72 µM
[19]
  GI50: 4.26 µM
  TGI: 17.6 µM
[20]
  GI50: 2.15 µM
  TGI: 6.12 µM
[21]
  GI50: 2.35 µM
  TGI: 5.79 µM
[23]
  GI50: 1.98 µM
  TGI: 4.21 µM
[24]
  GI50: 2.24 µM
  TGI: 4.79 µM
[25]
  GI50: 2.54 µM
  TGI: 8.12 µM
[26]
  GI50: 2 µM
  TGI: 3.84 µM
[27]
  GI50: 3.67 µM
  TGI: 15.2 µM
[28]
  GI50: 1.7 µM
  TGI: 4.3 µM
[29]
  GI50: 2.44 µM
  TGI: 6.87 µM
[30]
  GI50: 5.57 µM
  TGI: 32.6 µM
[31]
  GI50: 3.8 µM
  TGI: 17.7 µM
[32]
  GI50: 2.27 µM
  TGI: 5.37 µM
[34]
  GI50: 3.82 µM
  TGI: 19.3 µM
[35]
  GI50: 4.17 µM
  TGI: 16.9 µM
[36]
  GI50: 4.2 µM
  TGI: 18.9 µM
[37]
  GI50: 3.3 µM
  TGI: 11.1 µM
[38]
  GI50: 4.3 µM
  TGI: 26.7 µM
[39]
  GI50: 3.18 µM
  TGI: 12.2 µM
[40]
  GI50: 2.64 µM
  TGI: 8.15 µM
[41]
  GI50: 2.19 µM
  TGI: 7.82 µM
[42]
  GI50: 4.15 µM
  TGI: 21.7 µM
[43]
  GI50: 1.86 µM
  TGI: 4.04 µM
[44]
  GI50: 2 µM
  TGI: 4.01 µM
[45]
  GI50: 3.96 µM
  TGI: 15.1 µM
[46]
  GI50: 2.96 µM
  TGI: 9.82 µM
[47]
  GI50: 3.79 µM
  TGI: 13.6 µM
[48]
  GI50: 10.1 µM
  TGI: 23 µM
[49]
  GI50: 6.94 µM
  TGI: 21.7 µM
[50]
  GI50: 4.59 µM
  TGI: 18.9 µM
[59]
  GI50: 2.88 µM
  TGI: 14.6 µM
[51]
  GI50: 2.09 µM
  TGI: 8.42 µM
[52]
  GI50: 2.11 µM
  TGI: 4.22 µM
[53]
  GI50: 3.54 µM
  TGI: 20.9 µM
[54]
  GI50: 5.54 µM
  TGI: 19.9 µM
[55]
  GI50: 3.53 µM
  TGI: 14.1 µM
[56]
  GI50: 4.28 µM
  TGI: 15.2 µM
[57]
  GI50: 6.03 µM
  TGI: 19.3 µM
[58]
  GI50: 3.02 µM
  TGI: 12.7 µM

Reference: PubChem BioAssay (NCI)
